Measurements: patent US6177438A, “Morphinan derivatives and pharmaceutical use thereof” (priority 1993, dated 2001)
pEC50, pIC50: −log10 of the molar value. Counter-ions that a name gives are not always drawn. Like-named read-outs stand apart in the source and are kept apart here.

Assays:
[1] = test system: nerve cells in the region of the hippocampus CA1; assay: Delayed neuronal death protective action (gerbil transient ischemia model, hippocampus CA1 nerve cell count); format: in vivo, gerbils; conditions: s.c.; for No. of Residual Nerve Cells: 30 minutes before ischemia, 1 week after ligation; for Suppression of defluxion of brain nerve cells caused by ischemia / cerebro-neuroprotective activity (in words): gerbils
Experimental: Those compounds that provide protection from and suppress delayed neuronal death described in Example 238 are considered to be promising as preventive and therapeutic agents for ischemic brain disorders, brain nerve cell disorders and dementia, which are problems that the present invention is attempting to solve. The pharmacological activity of the compounds of the present invention was evaluated in the manner below using gerbils for the animal model.
A midline incision was made in gerbils having body weights of 50-70 g under ether anesthesia. Blood flow through the carotid arteries on both sides was interrupted to create an ischemic state by ligating the vessels for 5 minutes. The test compound was administered subcutaneously either 30 minutes or 1 hour prior to ligation ischemia, and the rectal temperature of the animals was controlled to 37±2° C. using a heating pad or heater starting 5 minutes before to 30 minutes after ligation ischemia. 1 week after ligation, 4% neutral buffered formalin was perfused from the heart throughout the body followed by extraction of the brain. After post-fixing the extracted brain in the same solution, the tissue was prepared into sections after embedding in paraffin. The sections were stained with hematoxylin and eosin stain, and the number of nerve cells in the region of the hippocampus CA1 over a width of 1 mm to the left and right was counted. The total number of nerve cells on the right and left sides was then used for evaluation.

[2] = test system: acetic acid-induced writhing in ddy mice; assay: animal or person; format: in vivo, 5 week old ddy mice; conditions: s.c. 15 minutes before acetic acid
Experimental: 5 week old ddy mice were used in this test. After intraperitoneal administration of 0.1 ml of 0.6% aqueous acetic acid per 10 g of body weight, the number of writhing reactions that occurred in 10 minutes starting 10 minutes after administration was evaluated for the indicator. The test drug was administered subcutaneously into the backs of the animals 15 minutes before administration of acetic acid.

[3] = test system: cultured nerve cells (cerebral cortex); conditions: 10 mM glutamic acid, 24 hours
[4] = test system: cultured nerve cells (cerebral cortex); assay: cells; conditions: Rattus norvegicus, Cerebral cortex neuron, 24 h, read-out: ED50 (protection against glutamic acid toxicity)
[5] = target: T1, μ receptor (Mus musculus, UniProt P42866); assay: Opioid activity test using an extracted mouse vas deferens preparation, Ke with naloxone; set-up: species or system male ddy mouse; conditions: naloxone added
T1 construct: naloxone as mu antagonist (printed 'agonist')
Experimental: A male ddy mouse was used in this test. The vas deferens extracted from the animal was suspended in a Magnus tube filled with Krebes-Henseleit solution (NaCl 118 mM; KCl 4.7 mM; CaCl2 2.5 mM; KH2 PO4 1.1 mM; NaHCO3 25 mM; Glucose 11 mM) warmed to 37° C. and ventilated with 5% carbon dioxide and 95% oxygen. Electrical stimulus was performed at 0.1 Hz for 5.0 ms by means of ring-shaped platinum electrodes located above and below. Tissue contractions were recorded on a polygraph using an isometric transducer.
After adequately washing with nutrient solution and the contraction reaction stabilized, the μ agonist, naloxone, the δ agonist, NTI, or the κ agonist, norBNI, was added after which the test compound was again cumulatively added after roughly 20 minutes. The Ke value was calculated using the following calculation formula from the difference in the efficacies of both agonists.
Ke=[Conc. of added agonist]/(IC50 ratio-1)
IC50 ratio=IC50 in the presence of agonist/IC50 in the absence of agonist

[6] = Diuretic action (urine output for 5 hours after physiological saline loading in rats); format: in vivo, male Wistar rats; conditions: for ED (200% urine output) / ED (500% urine output): Rattus norvegicus, sc, 5 hours after saline 20 ml/kg p.o.; for ED (200% urine output): dose giving urine output of 200 (non-dosed group = 100); for ED (500% urine output): dose giving urine output of 500 (non-dosed group = 100)
Outline: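 Doses reported as ED200/ED500, i.e. those raising 5 h urine output to 200 or 500 versus undosed rats set at 100. Subcutaneous dosing preceded an oral 20 ml/kg saline load by 30 min; male Wistar rats, 7-8 weeks, deprived of water 1 h beforehand.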

[7] = test system: extracted mouse vas deferens preparation; assay: Opioid activity test using an extracted mouse vas deferens preparation (suppression of electrically induced contractions); set-up: species or system male ddy mouse; conditions: electrical stimulus 0.1 Hz, 37° C.
Outline: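 Male ddY mouse vas deferens in Krebs-Henseleit at 37° C, 5% CO2/95% O2, field-stimulated at 0.1 Hz, 5.0 ms; isometric contractions recorded. After adding naloxone, NTI or norBNI, test compound was added cumulatively after ~20 min; Ke derived from the difference in agonist efficacies.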

[8] = target: T2, κ receptor (Mus musculus, UniProt P33534); assay: Opioid activity test using an extracted mouse vas deferens preparation, Ke with norBNI; set-up: species or system male ddy mouse; conditions: for receptor selectivity of agonist (κ): in words; for Ke, norBNI: κ, norBNI added
T2 construct: from tissue; host or cells: mouse (male ddy) vas deferens

[9] = target: T3, δ receptor (Mus musculus, UniProt P32300); set-up: species or system male ddy mouse; conditions: for Ke, NTI: δ, NTI added
T3 construct: The vas deferens extracted from the animal was suspended in a Magnus tube; from tissue; host or cells: mouse (male ddy) vas deferens

[10] = Mus musculus, sc, read-out: ED50

T2 sequence (P33534 whole entry): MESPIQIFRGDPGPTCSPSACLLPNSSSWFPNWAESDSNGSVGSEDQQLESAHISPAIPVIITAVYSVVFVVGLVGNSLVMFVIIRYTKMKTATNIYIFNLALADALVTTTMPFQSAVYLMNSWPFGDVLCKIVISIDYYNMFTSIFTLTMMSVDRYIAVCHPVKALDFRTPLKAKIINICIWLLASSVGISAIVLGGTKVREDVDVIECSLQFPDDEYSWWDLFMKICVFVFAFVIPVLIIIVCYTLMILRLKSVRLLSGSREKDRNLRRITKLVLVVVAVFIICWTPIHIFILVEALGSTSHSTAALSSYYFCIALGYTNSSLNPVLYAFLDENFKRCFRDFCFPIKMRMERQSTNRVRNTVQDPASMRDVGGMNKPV
T1 sequence (P42866 whole entry): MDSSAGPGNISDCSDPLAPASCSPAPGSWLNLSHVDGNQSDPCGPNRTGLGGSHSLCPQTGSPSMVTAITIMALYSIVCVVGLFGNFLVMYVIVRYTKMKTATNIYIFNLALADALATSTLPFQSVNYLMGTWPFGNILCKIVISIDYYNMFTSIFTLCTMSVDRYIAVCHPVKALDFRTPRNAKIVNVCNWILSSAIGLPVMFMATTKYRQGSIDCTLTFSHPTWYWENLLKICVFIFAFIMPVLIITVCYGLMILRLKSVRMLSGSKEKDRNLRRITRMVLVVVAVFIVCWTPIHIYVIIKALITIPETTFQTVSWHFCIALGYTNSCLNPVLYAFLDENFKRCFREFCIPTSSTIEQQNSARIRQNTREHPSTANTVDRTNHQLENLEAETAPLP
T3 sequence (P32300 whole entry): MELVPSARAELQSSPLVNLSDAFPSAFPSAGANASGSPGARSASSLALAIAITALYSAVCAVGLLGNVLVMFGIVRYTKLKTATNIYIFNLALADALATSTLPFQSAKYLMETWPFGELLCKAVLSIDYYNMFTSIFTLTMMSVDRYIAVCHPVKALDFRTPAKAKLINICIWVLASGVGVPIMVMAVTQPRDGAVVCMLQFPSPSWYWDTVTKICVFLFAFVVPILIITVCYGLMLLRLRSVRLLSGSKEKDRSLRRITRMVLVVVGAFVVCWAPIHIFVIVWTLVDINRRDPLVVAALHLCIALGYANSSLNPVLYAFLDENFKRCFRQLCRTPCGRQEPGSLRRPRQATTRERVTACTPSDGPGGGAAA

Row | SMILES | No. of Residual Nerve Cells ([1]; 0.03 mg/kg) | No. of Residual Nerve Cells ([1]; 0.3 mg/kg) | No. of Residual Nerve Cells ([1]; 3 mg/kg) | Suppression of defluxion of brain nerve cells caused by ischemia / cerebro-neuroprotective activity (in words) [1] | ED50 [2, 10] [µg/kg] | Protective action against cytotoxicity caused by glutamic acid (in words) [3] | pEC50 [4] | Ke, Naloxone [5] [nM] | ED (200% urine output) [6] [µg/kg] | ED (500% urine output) [6] [µg/kg] | ED50 [2] [µg/kg] | pIC50 [7] | receptor selectivity of agonist (κ) [8] | Ke, norBNI [8] [nM] | Ke, NTI ([9]; mouse vas deferens) [nM] | Diuretic action (in words) ([6]; s.c., from ED200 values) | receptor selectivity of agonist (δ) ([9]; mouse vas deferens, in words) | receptor selectivity of agonist (δ) [9]
1 | CN(C(=O)CCCCCc1ccccc1)[C@H]1CC[C@@]2(O)[C@H]3Cc4ccc(O)c5c4[C@@]2(CCN3CC2CC2)[C@H]1O5 [Compound 36, 17-cyclopropylmethyl-3,14β-dihydroxy-4,5α-epoxy-6α-(N-methyl-6-phenylhexanamido)morphinan.cndot.hydrochloride] | 38.8 ± 19.6 | 85.5 ± 34.9 | 68.0 ± 45.3 | significantly suppress defluxion of brain nerve cells caused by ischemia | 230 | clearly demonstrated action that protects nerve cells from cytotoxicity caused by glutamic acid | 6.64 |  |  |  |  |  |  |  |  |  |  | 
2 | CN(C(=O)/C=C/c1ccccc1)[C@@H]1CC[C@@]2(O)[C@H]3Cc4ccc(O)c5c4[C@@]2(CCN3CC2CC2)[C@H]1O5 [Compound 99, 17-cyclopropylmethyl-3,14β-dihydroxy-4,5α-epoxy-6β-(N-methylcinnararido)morphinan.cndot.hydrochloride] |  |  |  |  |  | clearly demonstrated action that protects nerve cells from cytotoxicity caused by glutamic acid | 4.81 | 94.5 | 1.1 | 30.9 | 1.8 | 9.17 | selective agonists for κ receptors | 0.652 |  |  |  | 
3 | CN(C(=O)/C=C/C1CCCCC1)[C@@H]1CC[C@@]2(O)[C@H]3Cc4ccc(O)c5c4[C@@]2(CCN3CC2CC2)[C@H]1O5 [Compound 68, 17-cyclopropylmethyl-3,14β-dihydroxy-4,5α-epoxy-6β-(N-methyl-3-cyclohexylacrylamido)morphinan.cndot.tartrate] |  |  |  |  | 4.2 | clearly demonstrated action that protects nerve cells from cytotoxicity caused by glutamic acid | 5.85 | 5710 | 1.6 | 23.2 |  | 9.34 | selective agonists for κ receptors | 1.08 | 143 |  |  | 
4 | CN(C(=O)/C=C/c1ccccc1)[C@H]1CC[C@@]2(O)[C@H]3Cc4ccc(O)c5c4[C@@]2(CCN3CC2CC2)[C@H]1O5 [Compound 24, 17-cyclopropylmethyl-3,14β-dihydroxy-4,5α-epoxy-6α-(N-methylcinnamamido)morphinan.cndot.hydrochloride] |  |  |  |  | 5.75 | clearly demonstrated action that protects nerve cells from cytotoxicity caused by glutamic acid | 5.72 | 16.5 | 0.69 | 6.3 |  | 9.92 |  | 4.90 | 0.426 | extremely strong diuretic action | selective agonists for δ receptors | 
5 | CC(C)CN(C(=O)Cc1ccc(Cl)c(Cl)c1)[C@H]1CC[C@@]2(O)[C@H]3Cc4ccc(O)c5c4[C@@]2(CCN3CC2CC2)[C@H]1O5 [Compound 51, 17-cyclopropylmethyl-4,5α-epoxy-3,14β-dihydroxy-6α-(N-isobutyl-3,4-dichlorophenylacetoamido)morphinan.cndot.hydrochloride] | 17.8 ± 6.9 | 46.4 ± 15.1 | 203.8 ± 40.1 | significantly suppress defluxion of brain nerve cells caused by ischemia | 190 | clearly demonstrated action that protects nerve cells from cytotoxicity caused by glutamic acid | 7.52 |  |  |  |  |  |  |  |  |  |  | 
6 | CCC/C=C/C(=O)N(C)[C@@H]1CC[C@@]2(O)[C@H]3Cc4ccc(O)c5c4[C@@]2(CCN3CC2CC2)[C@H]1O5 [Compound 100, 17-cyclopropylmethyl-3,14β-dihydroxy-4,5α-epoxy-6β-(N-methyl-trans-2-hexenamido)morphinan.cndot.tartrate] |  |  |  |  | 24 | clearly demonstrated action that protects nerve cells from cytotoxicity caused by glutamic acid | 5.76 | 1797 | 15.9 | 811 |  | 9.19 | selective agonists for κ receptors | 0.0717 |  |  |  | 
7 | CN(C(=O)C#Cc1ccccc1)[C@H]1CC[C@@]2(O)[C@H]3Cc4ccc(O)c5c4[C@@]2(CCN3CC2CC2)[C@H]1O5 [Compound 84, 17-cyclopropylmethyl-3,14β-dihydroxy-4,5α-epoxy-6α-(N-methyl-3-phenylpropiolamido)morphinan.cndot.hydrochloride] |  |  |  |  | 5.8 | clearly demonstrated action that protects nerve cells from cytotoxicity caused by glutamic acid | 5.57 | 35.4 | 2.8 | 46.9 |  | 8.68 |  | 5.69 | 0.309 |  |  | selective agonists for δ receptors
8 | CN(C(=O)C#Cc1ccccc1)[C@@H]1CC[C@@]2(O)[C@H]3Cc4ccc(O)c5c4[C@@]2(CCN3CC2CC2)[C@H]1O5 [Compound 101, 17-cyclopropylmethyl-3,14β-dihydroxy-4,5α-epoxy-6β-(N-methyl-3-phenylpropiolamido)morphinan.cndot.hydrochloride] |  |  |  |  | 6.6 | clearly demonstrated action that protects nerve cells from cytotoxicity caused by glutamic acid | 4.91 | 25.4 | 8.9 | 226 |  | 9.57 | selective agonists for κ receptors | 0.0425 | 31.6 |  |  | 
